Assay results as given in article PMC3887211, “Automethylation Activities within the Mixed Lineage Leukemia-1 (MLL1) Core Complex Reveal Evidence Supporting a “Two-active Site” Model for Multiple Histone H3 Lysine 4 Methylation” (The Journal of Biological Chemistry, 2013).

Columns and labels:
MBP-Trithorax SET domain = molecular target: T1, MBP-Trithorax SET domain (Drosophila melanogaster, UniProt P20659); assay: [3H]methyl transfer (automethylation and H3 methylation), SDS-PAGE fluorography; type: biochemical; conditions: labelled compound; with or without histone H3 peptide (1-20); pH 8.5, 15 °C
T1 construct: gene trx; SET domain as MBP fusion from E. coli
T1 sequence (P20659 3588-3726 limits assumed): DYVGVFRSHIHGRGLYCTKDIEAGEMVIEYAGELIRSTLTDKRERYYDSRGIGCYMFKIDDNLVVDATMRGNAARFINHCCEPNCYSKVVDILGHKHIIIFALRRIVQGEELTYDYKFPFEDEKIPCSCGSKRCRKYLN

[1] = molecular target: T2, MLL1 SET domain (MLL^3745) (Homo sapiens, UniProt Q03164); assay: [3H]methyl transfer to H3 peptide, streptavidin pull-down, liquid scintillation counting; type: biochemical; conditions: histone H3 peptide (1-20)-GGK-biotin 500 μM fixed; 7 μM MLL1; 0-100 μM labelled compound; assay buffer pH 8.5, 15 °C; construct of MLL1 not stated for this assay; read-out: apparent Km
T2 construct: gene KMT2A; C-terminal Win motif + SET domain, residues 3745-3969, 26 kDa, expressed in E. coli as GST fusion

[2] = molecular target: T3, MLL1 core complex (MWRAD) (Homo sapiens, UniProt Q03164); conditions: labelled compound; no histone H3; pH 8.5, 15 °C; intra-complex methylation of Ash2L by MLL1 SET domain
T3 construct: gene KMT2A

WRAD = molecular target: T4, WRAD (Homo sapiens, UniProt Q15291+Q9UBL3); conditions: labelled compound, no MLL1
T4 construct: gene ASH2L
T4 sequence (Q9C005 whole entry): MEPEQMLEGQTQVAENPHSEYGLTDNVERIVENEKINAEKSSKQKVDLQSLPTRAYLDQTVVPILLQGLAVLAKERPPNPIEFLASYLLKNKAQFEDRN
T4 sequence (Q15291 whole entry): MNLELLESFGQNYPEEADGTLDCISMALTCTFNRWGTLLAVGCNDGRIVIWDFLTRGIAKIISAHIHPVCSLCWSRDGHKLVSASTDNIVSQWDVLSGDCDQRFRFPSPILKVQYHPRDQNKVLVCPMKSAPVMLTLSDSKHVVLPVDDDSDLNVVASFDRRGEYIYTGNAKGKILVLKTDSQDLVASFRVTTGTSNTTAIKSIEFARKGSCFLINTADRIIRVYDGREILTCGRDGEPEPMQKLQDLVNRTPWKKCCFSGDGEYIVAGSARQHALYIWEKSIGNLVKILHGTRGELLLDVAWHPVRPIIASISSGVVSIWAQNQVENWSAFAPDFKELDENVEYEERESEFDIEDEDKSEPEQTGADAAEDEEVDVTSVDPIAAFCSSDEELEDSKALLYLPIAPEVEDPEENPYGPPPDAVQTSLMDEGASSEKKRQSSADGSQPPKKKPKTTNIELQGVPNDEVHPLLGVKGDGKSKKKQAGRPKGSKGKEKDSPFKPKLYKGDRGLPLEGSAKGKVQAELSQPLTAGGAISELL
T4 sequence (Q9UBL3 whole entry): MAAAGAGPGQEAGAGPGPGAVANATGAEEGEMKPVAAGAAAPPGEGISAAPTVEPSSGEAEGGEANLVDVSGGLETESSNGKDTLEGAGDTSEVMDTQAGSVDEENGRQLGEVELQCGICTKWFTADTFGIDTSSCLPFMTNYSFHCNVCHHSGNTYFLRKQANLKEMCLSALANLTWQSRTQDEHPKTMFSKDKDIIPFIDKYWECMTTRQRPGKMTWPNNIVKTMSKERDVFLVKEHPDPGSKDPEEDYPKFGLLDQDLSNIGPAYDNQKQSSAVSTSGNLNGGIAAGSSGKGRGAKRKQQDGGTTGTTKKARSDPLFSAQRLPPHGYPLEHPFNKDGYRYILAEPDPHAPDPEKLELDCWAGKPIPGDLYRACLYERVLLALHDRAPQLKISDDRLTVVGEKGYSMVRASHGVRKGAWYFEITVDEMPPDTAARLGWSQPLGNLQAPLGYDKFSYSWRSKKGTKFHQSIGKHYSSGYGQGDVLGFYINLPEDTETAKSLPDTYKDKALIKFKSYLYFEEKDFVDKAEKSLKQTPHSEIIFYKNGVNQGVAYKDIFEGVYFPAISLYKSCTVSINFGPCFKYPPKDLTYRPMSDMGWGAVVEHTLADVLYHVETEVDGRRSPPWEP

T2 sequence (Q03164 3745-3969): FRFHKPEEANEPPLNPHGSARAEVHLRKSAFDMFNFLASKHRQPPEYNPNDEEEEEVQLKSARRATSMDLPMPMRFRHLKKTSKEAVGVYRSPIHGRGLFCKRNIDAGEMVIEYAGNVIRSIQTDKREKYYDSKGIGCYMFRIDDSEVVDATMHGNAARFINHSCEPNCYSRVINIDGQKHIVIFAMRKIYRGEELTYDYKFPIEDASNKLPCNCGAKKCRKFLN
T3 sequence (Q9C005 whole entry, the tested form may be a part): as the sequence (Q9C005 whole entry) above
T3 sequence (Q9UBL3 whole entry, further chain, the tested form may be a part): as the sequence (Q9UBL3 whole entry) above
T3 sequence (Q03164 3745-3969): as the sequence (Q03164 3745-3969) above
T3 sequence (Q15291 whole entry, further chain, the tested form may be a part): as the sequence (Q15291 whole entry) above

Km [1]: 10.4 ± 3.1 µM
SMILES: C[S+](CC[C@H](N)C(=O)O)C[C@H]1O[C@@H](n2cnc3c(N)ncnc32)[C@H](O)[C@@H]1O (stereo partly shown) [AdoMet]
[3H]methyl transfer (automethylation and H3 methylation), SDS-PAGE fluorography (MBP-Trithorax SET domain): MBP-Trithorax SET domain is enzymatically active and undergoes automethylation in the absence of histone H3
[3H]methyl transfer to Ash2L, SDS-PAGE fluorography [2]: Ash2L methylation is dependent on the catalytic activity of the MLL1 SET domain
[3H]methyl transfer to histone H3 peptide, SDS-PAGE fluorography (WRAD): despite significant histone H3 methylation by WRAD, no Ash2L methylation was observed
